Assays:
Assay type in all cases: biochemical
AcrIII-1 SIRV1 gp29 = target: T1, AcrIII-1 SIRV1 gp29 (Sulfolobus islandicus rod-shaped virus 1, UniProt Q8QL27); assay: degradation of unlabelled cA6, TLC under […] nm UV; details: 40 uM dimer, 450 uM cA6, MES pH 5.5, 70 °C; weak substrate, very slow
T1 sequence (Q8QL27 1-114): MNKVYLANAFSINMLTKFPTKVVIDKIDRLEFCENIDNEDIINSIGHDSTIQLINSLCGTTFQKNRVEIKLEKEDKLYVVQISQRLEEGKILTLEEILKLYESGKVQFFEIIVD

AcrIII-1 YddF = target: T2, AcrIII-1 YddF (Bacillus subtilis, UniProt P96643); assay: single-turnover cleavage of […]-labelled cA4, denaturing PAGE / TLC; details: 8 uM dimer, MES pH 6.0, 100 mM NaCl, 1 mM EDTA, 37 °C; labelled compound
T2 sequence (P96643 1-108): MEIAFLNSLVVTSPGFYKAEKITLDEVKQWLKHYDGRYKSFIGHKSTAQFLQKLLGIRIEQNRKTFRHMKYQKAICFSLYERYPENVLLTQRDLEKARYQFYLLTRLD

Crn1 Sso2081 = target: T3, Crn1 Sso2081 (Saccharolobus solfataricus, UniProt Q7LYJ6); assay: as above; details: 4 uM dimer, Tris-HCl pH 8.0, 100 mM NaCl, 1 mM EDTA, 50 °C; labelled compound
T3 sequence (Q7LYJ6 1-178): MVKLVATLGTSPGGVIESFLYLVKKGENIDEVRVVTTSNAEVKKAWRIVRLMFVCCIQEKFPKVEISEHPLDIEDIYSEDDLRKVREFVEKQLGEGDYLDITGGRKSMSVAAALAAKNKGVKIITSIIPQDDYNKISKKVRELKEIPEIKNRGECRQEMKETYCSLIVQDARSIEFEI

SMILES | degradation of unlabelled cA6, TLC under 254 nm UV (AcrIII-1 SIRV1 gp29) | single-turnover cleavage of 32P-labelled cA4, denaturing PAGE / TLC (AcrIII-1 YddF) | single-turnover cleavage of 32P-labelled cA4, denaturing PAGE / TLC (Crn1 Sso2081)
Nc1ncnc2c1ncn2[C@@H]1O[C@@H]2COP(=O)(O)O[C@H]3[C@@H](O)[C@H](n4cnc5c(N)ncnc54)O[C@@H]3COP(=O)(O)O[C@H]3[C@@H](O)[C@H](n4cnc5c(N)ncnc54)O[C@@H]3COP(=O)(O)O[C@H]3[C@@H](O)[C@H](n4cnc5c(N)ncnc54)O[C@@H]3COP(=O)(O)O[C@H]3[C@@H](O)[C@H](n4cnc5c(N)ncnc54)O[C@@H]3COP(=O)(O)O[C@H]3[C@@H](O)[C@H](n4cnc5c(N)ncnc54)O[C@@H]3COP(=O)(O)O[C@H]2[C@H]1O [cA6] | strong preference for cA4 over cA6, with the latter degraded very slowly by comparison | – | –
Nc1ncnc2c1ncn2[C@@H]1O[C@@H]2COP(=O)(O)O[C@H]3[C@@H](O)[C@H](n4cnc5c(N)ncnc54)O[C@@H]3COP(=O)(O)O[C@H]3[C@@H](O)[C@H](n4cnc5c(N)ncnc54)O[C@@H]3COP(=O)(O)O[C@H]3[C@@H](O)[C@H](n4cnc5c(N)ncnc54)O[C@@H]3COP(=O)(O)O[C@H]2[C@H]1O [cA4] | – | Both proteins possess a potent ring nuclease activity, rapidly degrading cA4 | Kinetic comparison of cA4 degradation by the AcrIII-1 enzymes SIRV1 gp29 and YddF
